Assay results from patent US11192849B2, “Compounds, compositions, and methods for modulating ferroptosis and treating excitotoxic disorders” (THE TRUSTEES OF COLUMBIA UNIVERSITY IN THE CITY OF NEW YORK, priority 2013, dated 2021).
Non-standard residues stand in square brackets, D forms with d. Residues, ends and D or L forms follow the SMILES beside them. *: point of attachment. Nle = CCCC[C@H](N)C(=O)O; Cbz = O=C(OCc1ccccc1)*; CH2F = FC*

Experiments:
[1] = test system: HT-1080, BJeLR and Calu-1 cells; test: Modulatory profiling of cell death inhibitors against erastin; type: cell-based, human; conditions: erastin 10 μM, 24 hours; 10-point, 4-fold dilution series
Experimental: The day before the experiment, cells were seeded in black, 384-well clear bottom plates (Corning) at a density of 1,000 cells/well using a Beckman Biomek FX Workstation. All compounds (except 3-methyladenine and chloroquine, which were diluted in water) were diluted in DMSO at 250 times the final highest test concentration, and aliquoted across a 384-well plate (Greiner, Monroe, N.C.). A ten-point, 4-fold dilution series of each inhibitor in DMSO was made using a multichannel pipette. Replicates of this mother plate were stored at −20° C. […] Medium was removed from cells and replaced with 36 μL medium containing DMSO (0.1%) or erastin (10 μM final concentration). Using the Biomek FX, 4 μL were then transferred from each inhibitor daughter plate into the DMSO-containing or erastin-containing assay plates. For 3-methyladenine and chloroquine, inhibitors were prepared fresh in media at 10-fold the final concentration in the presence of DMSO or 10 μM erastin. These solutions were manually pipetted onto cells in 384-well format. Assay plates were incubated at 37° C. for 24 hours. Viability was assessed using Alamar Blue.
The modulatory effect (Me) for drug-drug interactions was computed as follows. First, plate-based background correction was performed using Alamar Blue values from empty (cell-free) wells included on each plate. Next, within each experiment, 100% viability is determined as the average Alamar Blue score for cells treated with modulator=DMSO and lethal=DMSO, and all Alamar Blue values were scaled from 0 to 1 with the DMSO×DMSO condition=1. The individual effects of each modulator and lethal (e.g. in the presence of DMSO) at all tested doses were then ascertained. […] Next, BExp was compared to the actual observed viability. […] By default, Me in DMSO-treated cells is equal to 0. […] Me values for each inhibitor-lethal drug combination were hierarchically clustered and plotted as a heatmap using the heatmaps.2 function of the gplots library in R.

[2] = test system: HT-1080 cells; test: Inhibition of erastin (10 μM)-induced death in HT-1080 cells (Alamar Blue); type: cell-based, human; conditions: added up to 6 hours after erastin
Summary of the method: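 HT-1080 cells (1,000/well) were treated next day with 10 μM erastin plus a compound dilution series for 24 h. Alamar Blue (10% final) was then added for 6 h and fluorescence read at ex/em 530/590.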

[3] = test system: HT-1080 cells; test: Cytosolic and lipid ROS production (H2DCFDA, C11-BODIPY flow cytometry) in HT-1080 cells; type: cell-based, human; conditions: erastin (10 μM)
Experimental: The day before the experiment, 200,000 cells/well were seeded in 6-well dishes (Corning Inc., Corning, N.Y.). The day of the experiment, cells were treated with test compounds for the indicated times, then harvested by trypsinization, resuspended in 500 μL Hanks Balanced Salt Solution (HBSS, Gibco, Invitrogen Corp., Carlsbad, Calif.) containing either H2DCFDA (25 μM), C11-BODIPY(581/591) (2 μM) or MitoSOX (5 μM) (all from Molecular Probes, Invitrogen) and incubated for 10 minutes at 37° C. in a tissue culture incubator. Cells were then resuspended in 500 μL of fresh HBSS, strained through a […] cell strainer (BD Falcon, BD Biosciences, San Jose, Calif.), and analyzed using a flow cytometer (FACSCalibur or Accuri C6, BD Biosciences), which was equipped with 488-nm laser for excitation. Data was collected from the FL1 (H2DCFDA, C11-BODIPY) or FL2 channel (MitoSOX). A minimum of 10,000 cells were analyzed per condition.

[4] = test system: Calu-1 cells; test: Erastin-induced ferroptosis in Calu-1 cells, NOX pathway inhibitors; type: cell-based, human
Experimental: Cell viability was typically assessed in 384-well format by Alamar Blue (Invitrogen) fluorescence (ex/em 530/590) measured on a Victor3 platereader (Perkin Elmer, Waltham, Mass.). In some experiments, Trypan Blue dye exclusion counting was performed using an automated cell counter (ViCell, Beckman-Coulter Inc., Brea, Calif.). Cell viability in test conditions is reported as a percentage relative to the negative control treatment.

[5] = test system: rat organotypic hippocampal slice culture (OHSC); test: Glutamate excitotoxic injury in organotypic hippocampal slice cultures (PI uptake); type: cell-based; conditions: 5 mM L-glutamate 3 hours; Fer-1 2 μM, CPX 5 μM, MK-801 10 μM; 24 hours
Experimental: OHSCs were cultured as previously described (Morrison et al., 2002) with approval from Columbia University's Institutional Animal Care and Use Committee (IACUC). Briefly, Sprague Dawley rat pups (P8-P10) were rapidly decapitated, and the hippocampus placed in ice-cold Gey's balanced salt solution (Sigma). 400 μm thick sections were cut using a Mcllwain tissue chopper and immediately plated on Millicell cell culture inserts (Millipore, Billerica, Mass.) in Neurobasal (Invitrogen) media supplemented with B27 (1×, Invitrogen), GlutaMAX (1 mM, Invitrogen), and D-glucose (4.5 mg/mL, Sigma) at 37° C. and 5% CO2. After 2 days in vitro (DIV), the media was changed to medium containing serum comprised of 50% DMEM (Sigma), 25% heat-inactivated horse serum (Sigma), 25% Hank's balanced salt solution (Sigma), GlutaMAX (1 mM, Invitrogen), and D-glucose (4.5 mg/mL, Sigma). Medium was changed every 2-3 days.
After 10-14 DIV, OBSCs were exposed to an excitotoxic injury consisting of a 3 hour exposure to 5 mM L-glutamate in SFM (Morrison et al., 2002). […] After the 3 hour exposure, the cultures were placed in fresh serum free media (SFM) containing 75% DMEM, 25% Hank's balanced salt solution, GlutaMAX (1 mM), D-glucose (4.5 mg/mL) until cell death was quantified at 24 hours. […]
Quantification of cell death has been described previously (Cater et al., 2007; Morrison et al., 2002). […] Percentage cell death was expressed as the number of pixels in the ROI above a threshold in the PI fluorescent image divided by the total number of pixels in the ROI.
OHSCs were treated with a lethal excitotoxic stimulus (5 mM L-glutamate, 3 hours) that mimics the consequences of stroke and neurodegenerative disease (Morrison et al., 2002; Sundstrom et al., 2005) (FIG. 5A). […] The effects of these compound treatments on propidium iodide (PI) uptake were analyzed, as an indicator of cell death, 24 hours following the end of glutamate treatment, in 3 defined regions of the OHSCs: the dentate gyrus (DG), the CA1 and the CA3 fields of the hippocampus.

[6] = target: T1, system xc− (Homo sapiens, UniProt Q9UPY5); test: [14C]Cystine uptake assay in HT-1080 cells; type: cell-based; conditions: Erastin 10 μM, glutamate 50 mM, SAS 1 mM
T1 construct: endogenous in cells; host or cells: HT-1080 cells (ATCC)
T1 sequence (Q9UPY5 1-501): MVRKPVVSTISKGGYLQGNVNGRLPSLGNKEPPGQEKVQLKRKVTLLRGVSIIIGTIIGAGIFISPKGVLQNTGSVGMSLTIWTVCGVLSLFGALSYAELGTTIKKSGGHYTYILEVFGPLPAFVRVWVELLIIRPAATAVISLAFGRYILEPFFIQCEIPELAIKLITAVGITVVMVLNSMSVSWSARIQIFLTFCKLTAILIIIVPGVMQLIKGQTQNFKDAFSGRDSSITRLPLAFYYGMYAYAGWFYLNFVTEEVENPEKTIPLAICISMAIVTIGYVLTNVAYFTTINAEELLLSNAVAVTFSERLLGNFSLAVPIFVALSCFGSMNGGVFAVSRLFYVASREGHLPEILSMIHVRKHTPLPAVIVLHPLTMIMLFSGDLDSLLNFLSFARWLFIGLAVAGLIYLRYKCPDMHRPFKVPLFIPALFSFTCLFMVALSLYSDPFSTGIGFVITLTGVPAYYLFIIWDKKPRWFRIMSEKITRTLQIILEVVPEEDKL
T1 sequence (P08195 1-529 partner): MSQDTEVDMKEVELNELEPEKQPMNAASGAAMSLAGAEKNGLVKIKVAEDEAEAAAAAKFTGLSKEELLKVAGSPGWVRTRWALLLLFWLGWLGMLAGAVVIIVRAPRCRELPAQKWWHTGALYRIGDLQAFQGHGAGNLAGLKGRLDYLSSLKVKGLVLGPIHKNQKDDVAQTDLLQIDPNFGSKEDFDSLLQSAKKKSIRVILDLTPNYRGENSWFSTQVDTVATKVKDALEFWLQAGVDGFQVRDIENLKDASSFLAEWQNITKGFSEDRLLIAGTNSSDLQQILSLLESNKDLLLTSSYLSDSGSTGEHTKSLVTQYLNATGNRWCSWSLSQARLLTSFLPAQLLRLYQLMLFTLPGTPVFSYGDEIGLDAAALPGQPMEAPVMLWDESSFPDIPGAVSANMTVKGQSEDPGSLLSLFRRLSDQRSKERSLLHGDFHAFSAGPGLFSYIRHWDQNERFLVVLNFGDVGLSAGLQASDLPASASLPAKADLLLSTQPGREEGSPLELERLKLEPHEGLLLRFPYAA
Experimental: 200,000 HT-1080 cells/well were seeded overnight in 6-well dishes (Corning). […] At this point, in each well the buffer was replaced with 600 μL uptake buffer containing compound and 0.12 μCi (80-110 mCi/mmol) of L-[3,3′-^14C]-cystine (Perkin Elmer) and incubated for 3 minutes at 37° C. Cells were then washed three times with ice-cold uptake buffer and lysed in 500 μL 0.1 M NaOH. To this lysate was added 15 mL of scintillation fluid and radioactive counts per minute were obtained using a scintillation counter. All measurements were performed in triplicate for each condition.

| Compound | modulation of erastin-induced death [1] | other results |
| --- | --- | --- |
| CCOC(=O)[C@H]1O[C@@H]1C(=O)N[C@@H](CC(C)C)C(=O)NCCC(C)C (relative stereo) [Compound E64d, (2S,3S)-trans-epoxysuccinyl-L-leucylamido-3-methylbutane ethyl ester] | not consistently modulated | – |
| Cn1cnc(N)c2ncnc1-2 [3-methyladenine] | not consistently modulated | – |
| CCCC[C@@H](C=O)NC(=O)[C@H](CC(C)C)NC(=O)[C@H](CC(C)C)NC(C)=O [ALLN, N-Acetyl-Leu-Leu-Nle-CHO] (Ac-Leu-Leu-[Nle]-aldehyde) | not consistently modulated | – |
| C[C@@H]1C[C@@H]([C@H](O)CC2CC(=O)NC(=O)C2)C(=O)[C@@H](C)C1 [CHX, cycloheximide] | to a weaker extent | – |
| N#CC(=C(N)Sc1ccccc1N)C(C#N)=C(N)Sc1ccccc1N [Compound U0126, 1,4-diamino-2,3-dicyano-1,4-bis (2-aminophenylthio)butadiene] | rescued from erastin-induced death | protection when added after erastin [2]: substantial protection from death; effect of inhibitor on erastin-induced ROS accumulation [3]: prevented the accumulation of H2DCFDA-sensitive ROS |
| c1ccc2c(c1)[I+]c1ccccc1-2 [DPI, diphenylene iodonium] | – | suppression of erastin-induced ferroptosis [4]: strongly suppressed |
| C[C@]12N[C@H](Cc3ccccc31)c1ccccc12 [MK-801] | – | glutamate-induced cell death (PI uptake) in DG, CA1, CA3 [5]: attenuated significantly |
| O=C(O)c1cc(/N=N/c2ccc(S(=O)(=O)Nc3ccccn3)cc2)ccc1O [SAS, sulfasalazine] | – | Na+-independent uptake of [14C]cystine [6]: abolished |
| CO/C1=C\C(C)=C\[C@@H](C)[C@@H](O)[C@@H](C)C/C(C)=C/C=C/[C@H](OC)[C@@H]([C@@H](C)[C@@H](O)[C@H](C)[C@@]2(O)C[C@@H](O)[C@H](C)[C@@H](C(C)C)O2)OC1=O [bafilomycin A1] | not consistently modulated | – |
| CCN(CC)CCCC(C)Nc1ccnc2cc(Cl)ccc12 (centres unmarked) [chloroquine] | not consistently modulated | – |
| N[C@@H](CCC(=O)O)C(=O)O [glutamate] | – | Na+-independent uptake of [14C]cystine [6]: abolished |
| Cc1c(C)c2c(c(C)c1O)CCC(C)(C(=O)O)O2 (centres unmarked) [trolox, 6-hydroxy-2,5,7,8-tetramethylchroman-2-carboxylic acid] | rescued from erastin-induced death | protection when added after erastin [2]: substantial protection from death; effect of inhibitor on erastin-induced ROS accumulation [3]: prevented the accumulation of H2DCFDA-sensitive ROS |
| COC(=O)CC(NC(=O)C(C)NC(=O)C(NC(=O)OCc1ccccc1)C(C)C)C(=O)CF (stereo not drawn) [z-VAD-fmk, carbobenzyloxy-valyl-alanyl-aspartyl-[O-methyl]-fluoromethylketone] (Cbz-Val-Ala-Asp(OMe)-CH2F; configuration not given here) | not consistently modulated | – |
